According to patent publication EP1935984A1 (priority 2006, dated 2008):

How the values were obtained:
[1] = system: Bacillus subtilis wild-type strain PB2; experiment: microbe, parasite or virus in culture
Procedure: (§1) To get a better understanding of the global response of Bacillus subtilis enduring sorbic acid stress, DNA microarray analysis was performed. We studied changes in gene expression after 10, 20, 30, 40 and 50 min of exposure to potassium sorbate in comparison to an untreated control. […] Changes in gene expression were studied using spotted oligo-arrays. The microarray consisted of 4100 gene specific 65-mer oligonucleotides, representing 4,100 of the 4,106 possible ORFs in B. subtilis (as reported for the B. subtilis genome at http://genolist.pasteur.fr/SubtiList/), spotted in duplo onto glass slides. Total RNA, isolated from the sorbate stressed and control cultures of each time-point, was labelled with the fluorescent dyes Cy5-dUTP and Cy3-dUTP respectively and hybridized onto the same slide. Biologically independent experiments were performed in duplo. […] Since the variation in differential expression measurements depends on the intensity (smaller variation at higher- and larger variation at lower fluorescence intensity levels), we applied an intensity-dependent method to identify differentially expressed genes (Yang et al., (2002)a, Genome Biol., 3: 0062). […] According to the KEGG (Kyoto Encyclopedia of Genes and Genomes, Kaneshisa M, et al (2006), Nucl. Acid Res., 34:354-357) database, this enzyme may also be involved in the degradation and biosynthesis of various metabolites, like arginine, proline, tyrosine, tryptophan and pyrine. […] YhcA is a possible multi-drug efflux pump and comprises of thirteen putative trans-membrane domains. YhcA is both a member of the drug resistance transporter EmrB/QacA subfamily and the major facilitator superfamily. […] We followed the growth by measuring the increase in OD600 and calculated growth inhibition percentages (Table 1). […] Table 1. Susceptibility of a selected mutant strain to sorbic acid stress.
(§2) All Bacillus subtilis strains used in this study are derivatives of the laboratory wild-type strain PB2 (kindly provided by C.W. Price) and are listed in Table 4. Mutant strains ATB002 (ureC), ATB007 (sigL) and ATB008 (sigM) were obtained by transformation of strain PB2 with chromosomal DNA of strains SF168U (Cruz-Ramos H., et al., (1997) J. Bacteriol., 179:3371-3373), QB5505 (Debarbouille M., et al., (1991), Proc. Natl. Acad. Sci., 181: 2059-2066) and AM1447 (Thackray PD and Moir A, (2003), J. Bacteriol., 185: 3491-3498), respectively. To obtain mutant strains ATB001 (fabHB), ATB003 (ycsF), ATB004 (yhcA), ATB005 (yhcB) and ATB006 (yxkJ), the wild-type strain PB2 was transformed with chromosomal DNA of strains YHFBd, YCSFd, YHCAd, YHCBd and YXKJd, respectively, which were all received from the Japanese Consortium for Functional Analysis of the B. subtilis Genome (JAFAN, http://bacillus.genome.ad.jp/). Transformants were selected on LB (Luria-Bertani) agar plates containing appropriate antibiotics, after overnight incubation at 37°C. Depending on the strain, the used antibiotics were chloramphenicol (6 µg/ml), erythromycin (0.5 µg/ml), spectinomycin (100 µg/ml) or kanamycin (10 µg/ml). Isolation of chromosomal DNA was performed according to Ward JB. (Ward JB et al, (1973), J. Bacteriol., 116: 719-726) and transformations were carried out as described by Kunst et al (Kunst F. et al, (1995) J. Bacteriol., 177: 2403-2407).

[2] = system: mutant strain ATB004 (yhcA); experiment: microbe, parasite or virus in culture; conditions: Bacillus subtilis, pH 6.4, read-out: GI% (growth inhibition)
Procedure: as §1, §2

[3] = system: wild type B.subtilis PB2; conditions: concentrations of 30mM and 40mM KSorbate
Procedure: On MB#1 first a test screen was performed on 15mM KSorbate.
The mutants and the wild type PB2 as a control were grown over night in liquid LB-media, pH6.4, 80mM MOPS and 100µg/ml spectinomycin (for the mutants only) at 37°C and 250rpm. The cultures were diluted to an OD600 of 0.2-0.25, grown to OD600=0.5 and again diluted to an OD600=0.020-0.025. At log-phase (OD600=0.2) a 200µl sample was taken, 10°fold to 10^-6fold diluted and ~5µl plated on the same LB-plates, pH6.4, 80mM MOPS containing 0mM, 15mM, 30mM and 40mM KSorbate. After 24h of incubation at 37°C pictures of the plates were taken.

[4] = pH 6.4, read-out: GI% (growth inhibition)

For `C/C=C/C=C/C(=O)[O-].[K+]` [Potassium sorbate, potassium sorbate], the inhibition at 3000 µM [1, 4] was 26.1%, the inhibition at 6000 µM [1, 4] was 40.7% and the inhibition at 15000 µM [1, 4] was 63.6%. For the same compound, the inhibition at 30000 µM [1, 4] was 73.2%, the inhibition of growth at 3000 µM ([1]; read-out: reduction in the growth rate) was 26% and the inhibition at 3000 µM [2] was 45.1%. For the same compound, the inhibition at 6000 µM [2] was 50%, the inhibition at 15000 µM [2] was 72% and the inhibition at 30000 µM [2] was 79.3%. The “growth of the wild type on sorbate plates” value [3] was “reduce the growth of the wild type”.
